Test results taken from ChEMBL document CHEMBL4706500, “Identification of dibucaine derivatives as novel potent enterovirus 2C helicase inhibitors: In vitro, in vivo, and combination therapy study” (Eur J Med Chem, 2020).
Activity calls are given as the source filed them. The rule behind the calls is not given here.

What was measured:
Enterovirus A71 [1] = test: Antiviral activity against Enterovirus A71 infected in human RD cells assessed as inhibition of viral replication measured by CCK-8 assay; assay type: functional, organism-based; details: Enterovirus A
RD [2] = test: Cytotoxicity against human RD cells infected with Enterovirus A71 assessed as reduction in cell viability measured by CCK-8 assay; assay type: functional
[3] = Selectivity index, ratio of CC50 for human RD cells infected with Enterovirus A71 to EC50 for Enterovirus A71 infected in human RD cells; assay type: toxicity, cell-based; details: read-out: Selectivity Index
Enterovirus A71 [4] = test: Antiviral activity against Enterovirus A71 infected in human RD cells using HEX-labelled RNA as substrate assessed as inhibition of dsRNA unwinding by measuring accumulation of dsRNA at 0.56 uM treated 8 hpi by gel based flourescence assay; assay type: functional, organism-based
Enterovirus A71 [5] = test: Antiviral activity against Enterovirus A71 infected in human RD cells assessed as inhibition of 2C expression measured after 24 hrs by Western blot assay; assay type: functional, organism-based
RD [6] = test: Inhibition of 2C ATPase helicase activity in Enterovirus A71 infected in human RD cells measured by gel electrophoresis method; assay type: cell-based
[7] = Toxicity in 14 day suckling KM mouse assessed as changes in weight growth at 6 mg/kg, po bid for 4 successive days measured on day 12 relative to control; assay type: organism-based; details: in vivo, 288 h, time 12 day
Enterovirus A71 [8] = test: Antiviral activity against Enterovirus A71 infected in human RD cells using HEX-labelled RNA as substrate assessed as increase in accumulation of 2C at 4.95 uM measured after 8hpi by gel based flourescence assay; assay type: functional, organism-based
Enterovirus A71 [9] = test: Antiviral activity against Enterovirus A71 infected in human RD cells using HEX-labelled RNA as substrate assessed as inhibition of dsRNA unwinding by measuring accumulation of dsRNA at 4.95 uM treated 8 hpi by gel based flourescence assay; assay type: functional, organism-based
Enterovirus A71 [10] = test: Antiviral activity against EV-A71 GZ-C11 infected in KM mouse assessed as improvement in survival rate administered 4 mg/kg, po bid for 4 days starting 6 hrs post infection measured on day 14 (reference value: 30%); assay type: functional; details: Enterovirus A, 96 h, time 4 day
Enterovirus A71 [11] = test: Antiviral activity against Enterovirus A71 at early stage of life cycle infected in African green monkey Vero cells assessed as VP1 expression at 3.2 uM treated 12 hpi measured upto 8 hrs by time of addition assay; assay type: functional, organism-based; details: time hrs <=8
Enterovirus A71 [12] = test: Antiviral activity against Enterovirus A71 at early stage of life cycle infected in human RD cells assessed as VP1 expression at 3.2 uM treated 12 hpi measured upto 8 hrs by time of addition assay; assay type: functional, organism-based; details: time hrs <=8
Enterovirus A71 [13] = test: Antiviral activity against EV-A71 GZ-C11 infected in KM mouse assessed as decrease in viral infection clinical symptoms administered 6 mg/kg, po bid for 4 days treatment started 6 hrs post infection measured on day 14 relative to control; assay type: functional, organism-based; details: time 14.0 day
Enterovirus A71 [14] = test: Antiviral activity against EV-A71 GZ-C11 infected in KM mouse assessed as improvement in survival rate administered 6 mg/kg, po bid for 4 days starting 6 hrs post infection measured on day 14 (reference value: 30%); assay type: functional; details: Enterovirus A, 96 h, time 4 day
Enterovirus A71 [15] = test: Antiviral activity against EV-A71 GZ-C11 infected in KM mouse assessed as prevention of death administered in presence of emetine at 6 mg/kg, po; assay type: functional, organism-based
Enterovirus A71 [16] = test: Antiviral activity against Enterovirus A71 infected in human RD cells assessed as inhibition of viral replication measured after 48 hrs by plaque assay; assay type: functional, organism-based
Enterovirus A71 [17] = test: Antiviral activity against Enterovirus A71 infected in African green monkey Vero cells assessed as reduction in viral RNA titer levels at early stage of life cycle at 3.2 uM treated 12 hpi measured upto 8 hrs by time of addition assay; assay type: functional, organism-based; details: time hrs <=8
Enterovirus A71 [18] = test: Antiviral activity against Enterovirus A71 infected in human RD cells assessed as inhibition of VP1 expression measured after 24 hrs by Western blot assay; assay type: functional, organism-based
Enterovirus A71 [19] = test: Antiviral activity against Enterovirus A71 infected in African green monkey vero cells assessed as down regulation of VP1 expression measured after 24 hrs by immunofluorescence assay; assay type: functional, organism-based

In the case of `CCCCCOc1cc(C(=O)NCCN(CC)CC)c2ccccc2n1`, the EC50 (Enterovirus A71 [1]) is reported as 5.83 µM, the CC50 (RD [2]) is reported as 35 µM and the selectivity ratio [3] is reported as 6.

`CCCCCOc1cc(C(=O)NCCN(C)C)c2ccccc2n1` showed an EC50 (Enterovirus A71 [1]) of 1.58 µM, a CC50 (RD [2]) of 75.9 µM and a selectivity ratio [3] of 48.

Molecule `CCN(CC)CCNC(=O)c1cc(OC)nc2ccccc12` has an EC50 (Enterovirus A71 [1]) of 27.7 µM, a CC50 (RD [2]) of over 111 µM and a selectivity ratio [3] of over 4.

Molecule `CCCNC(=O)c1cc(OCCC)nc2ccccc12` has an EC50 (Enterovirus A71 [1]) of over 100 µM.

`CCCCOc1cc(C(=O)NCCCN(CC)CC)c2ccccc2n1` showed an EC50 (Enterovirus A71 [1]) of 100 µM and a selectivity ratio [3] of 64.

`CCCOc1cc(C(=O)NCC(C)C)c2ccccc2n1` gave an EC50 (Enterovirus A71 [1]) of 58.2 µM, a CC50 (RD [2]) of 87.3 µM and a selectivity ratio [3] of 1.5.

Work on `CCOc1cc(C(=O)NCCN(C)C)c2ccccc2n1` yielded an EC50 (Enterovirus A71 [1]) of 3.62 µM, a CC50 (RD [2]) of 116 µM and a selectivity ratio [3] of 31.9.

Work on `CCOc1cc(C(=O)NCCN(CC)CC)c2ccccc2n1` yielded an EC50 (Enterovirus A71 [1]) of 2.48 µM, a CC50 (RD [2]) of over 106 µM and a selectivity ratio [3] of over 42.7.

For `CC(C)CNC(=O)c1cc(OC(C)C)nc2ccccc12`, the EC50 (Enterovirus A71 [1]) was 58.2 µM, the CC50 (RD [2]) was over 116 µM and the selectivity ratio [3] was over 2.

With `CCCCCCOc1cc(C(=O)NCCN(CC)CC)c2ccccc2n1` the EC50 (Enterovirus A71 [1]) was 4.21 µM, the CC50 (RD [2]) was 33.6 µM and the selectivity ratio [3] was 8.

Work on `CCCOc1cc(C(=O)NCCN(CC)CC)c2ccccc2n1` yielded an EC50 (Enterovirus A71 [1]) of 2.37 µM, a CC50 (RD [2]) of over 101 µM and a selectivity ratio [3] of over 42.7.

`CCCCOc1cc(C(=O)NCCCN(C)C)c2ccccc2n1` gave an EC50 (Enterovirus A71 [1]) of 100 µM.

`CCCCOc1cc(C(=O)NCCN(CC)CC)c2ccccc2n1` [DIBUCAINE] gave an EC50 (Enterovirus A71 [1]) of 2.27 µM, a CC50 (RD [2]) of over 97 µM and a selectivity ratio [3] of over 42.7.

`CCCCOc1cc(C(=O)NCCN2CCCC2)c2ccccc2n1` gave an EC50 (Enterovirus A71 [1]) of 1.53 µM, a CC50 (RD [2]) of over 97.7 µM and a selectivity ratio [3] of over 64.1.

In the case of `CCCNC(=O)c1cc(OCC)nc2ccccc12`, the EC50 (Enterovirus A71 [1]) is reported as 2.02 µM, the CC50 (RD [2]) is reported as over 70.2 µM and the selectivity ratio [3] is reported as over 34.8.

In the case of `CCCCCCOc1cc(C(=O)NCCN(C)C)c2ccccc2n1`, the EC50 (Enterovirus A71 [1]) is reported as 2.27 µM, the CC50 (RD [2]) is reported as 36.4 µM and the selectivity ratio [3] is reported as 16.

For `CC(C)S(=O)(=O)n1c(N)nc2ccc(/C(=N/O)c3ccccc3)cc21` [ENVIROXIME], the Activity (Enterovirus A71 [4]) was “inactive”, the EC50 (Enterovirus A71 [1]) was 0.14 µM and the CC50 (RD [2]) was 28 µM. For the same molecule, the selectivity ratio [3] was 200.

In the case of `CCCCOc1cc(C(=O)NCCN2CCCCC2)c2ccccc2n1`, the EC50 (Enterovirus A71 [1]) is reported as 1.47 µM and the CC50 (RD [2]) is reported as 93.8 µM.

With `CCCCOc1cc(C(=O)NCCN(C)C)c2ccccc2n1` the Activity (Enterovirus A71 [5]) was “Active”, the inhibition (RD [6]) was “Active” and the Activity [7] was “Non-Toxic”. For the same molecule, the EC50 (Enterovirus A71 [1]) was 1.24 µM, the Activity (Enterovirus A71 [8]) was “Active” and the Activity (Enterovirus A71 [9]) was “Active”. The survival at 4 mg/kg (Enterovirus A71 [10]) was 30%, the CC50 (RD [2]) was 106 µM and the Activity (Enterovirus A71 [11]) was “Active”. For the same molecule, the Activity (Enterovirus A71 [12]) was “Active”, the selectivity ratio [3] was 85.4 and the Activity (Enterovirus A71 [13]) was “Active”. For the same molecule, the survival at 6 mg/kg (Enterovirus A71 [14]) was 67%, the Activity (Enterovirus A71 [15]) was “Active” and the Activity (Enterovirus A71 [16]) was “Active”. For the same molecule, the Activity (Enterovirus A71 [17]) was “Active”, the Activity (Enterovirus A71 [18]) was “Active” and the Activity (Enterovirus A71 [19]) was “Active”.

`CCOc1cc(C(=O)NCC(C)C)c2ccccc2n1` gave an EC50 (Enterovirus A71 [1]) of over 100 µM.

With `CCCOc1cc(C(=O)NCCN(C)C)c2ccccc2n1` the EC50 (Enterovirus A71 [1]) was 1.58 µM, the CC50 (RD [2]) was over 111 µM and the selectivity ratio [3] was over 70.
